This note sets out measurements from patent US20140274688A1, “MOLECULES HAVING CERTAIN PESTICIDAL UTILITIES, AND INTERMEDIATES, COMPOSITIONS, AND PROCESSES RELATED THERETO” (DOW AGROSCIENCES LLC, priority 2013, published 2014).

In assay [1] the test system is Beet Armyworm (Spodoptera exigua) ("BAW"). The experiment in a line: Bioassay on Beet Armyworm (BAW), 128-well diet tray assay, percent mortality. It is filed as in vivo. As to conditions: Spodoptera exigua, read-out: BAW. A digest of the protocol: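 Larvae in covered diet trays held at 25 °C, 14:10 light-dark, for five to seven days. Percent mortality scored per well and averaged over eight wells per treatment.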

In assay [2] the test system is Cabbage Looper (Trichoplusia ni) ("CL"). The experiment in a line: Bioassay on Cabbage Looper (CL), 128-well diet tray assay, percent mortality. As to conditions: Trichoplusia ni, read-out: CL. It is filed as in vivo. A digest of the protocol:
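Larvae held in covered diet trays at 25 °C, 14:10 light-dark, for five to seven days. Percent mortality scored per well and averaged over eight wells.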

Assay [3] deals with Green Peach Aphid ("GPA") (Myzus persicae). The experiment in a line: Bioassay on Green Peach Aphid (GPA), foliar spray on cabbage seedlings, corrected % control. It counts as in vivo. As to conditions: Table ABC (P), rating of corrected % control.
For assay [4], the system named is Yellow Fever Mosquito "YFM" (Aedes aegypti). The settings on record: Table ABC (P), rating of mortality, Yellow Fever Mosquito.

As to `CC(C)c1cccc(N2C(=O)CS/C2=N\C(=O)NCCc2ccc(-c3ncn(-c4ccc(OC(F)(F)F)cc4)n3)cc2)c1` [P51, (Z)-1-(3-(3-isopropylphenyl)-4-oxothiazolidin-2-ylidene)-3-(4-(1-(4-(trifluoromethoxy)phenyl)-1H-1,2,4-triazol-3-yl)phenethyl)urea], the pest or weed control at 50 µg/cm2 in assay [1] and in assay [2] was 50 to 100% in each case. Besides, in assay [3], the GPA result was “B (More than 0-Less than 80)”. Further, the YFM entry in assay [4] is “A (80-100)”.

Take `Cc1ccc(C(C)C)c(N2C(=O)CS/C2=N\C(=O)NCCCCc2ccc(-c3ncn(-c4ccc(C(F)(F)F)cc4)n3)cc2)c1` [P159, (Z)-1-(3-(2-isopropyl-5-methylphenyl)-4-oxothiazolidin-2-ylidene)-3-(4-(4-(1-(4-(trifluoromethyl)phenyl)-1H-1,2,4-triazol-3-yl)phenyl)butyl)urea]: the pest or weed control at 50 µg/cm2 in assay [1] and in assay [2] was 50 to 100% in each case. Besides, the GPA entry in assay [3] is on record as “B (More than 0-Less than 80)”. The YFM entry in assay [4] was “A (80-100)”.
